From patent publication US20250368666A1, “INDAZOLE COMPOUNDS” (TYRA BIOSCIENCES, INC., priority 2022, published 2025)

Experiments:
[1] = test system: HuH7 cell line (FGF19 amplification); test: Cancer cell line cell viability assay (Cell Titer-Glo), 120 hr; assay type: cell-based; conditions: Homo sapiens, Huh-7
Procedure, shortened: (§1)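 Following overnight attachment, each line receives compound in triplicate across nine 4-fold dilutions starting at 3 μM, with DMSO backfill for equal solvent. Luminescence after Cell Titer-Glo 2.0 addition gives percent viability versus DMSO control, fitted by 4-parameter logistic for IC50.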

[2] = test system: RT112/84 cell line (FGFR3-fusion); test: Cancer cell line cell viability assay (Cell Titer-Glo), 72 hr; assay type: cell-based; conditions: Homo sapiens, RT112/84, RT112/84 cell line (FGFR3-fusion)
Procedure, shortened: as §1

[3] = test system: KG-1 cell line (FGFR 1-fusion); test: as above; assay type: cell-based; conditions: Homo sapiens, KG-1, KG-1 cell line (FGFR1-fusion)
Procedure, shortened: as §1

[4] = test system: KATO-III cell line (FGFR2 amplification); test: as above; assay type: cell-based; conditions: Homo sapiens, KATO III
Procedure, shortened: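 Luminescent ATP read-out (Cell Titer-Glo 2.0) after compound exposure, normalised to DMSO-only wells. Dosing: 9 concentrations, 4-fold steps, top 3 μM, triplicates. IC50 derived by log(inhibitor) vs. response 4-parameter fit.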

FGFR2 = biological target: T1, FGFR2 (Homo sapiens, UniProt P21802); test: Kinase binding assay (kinase-tagged T7 phage, affinity beads, qPCR), Kd; conditions: read-out: FGFR2 (Kd nM)
T1 construct: made in house; host or cells: E. coli (BL21-derived), T7 phage
T1 sequence (P21802 22-821): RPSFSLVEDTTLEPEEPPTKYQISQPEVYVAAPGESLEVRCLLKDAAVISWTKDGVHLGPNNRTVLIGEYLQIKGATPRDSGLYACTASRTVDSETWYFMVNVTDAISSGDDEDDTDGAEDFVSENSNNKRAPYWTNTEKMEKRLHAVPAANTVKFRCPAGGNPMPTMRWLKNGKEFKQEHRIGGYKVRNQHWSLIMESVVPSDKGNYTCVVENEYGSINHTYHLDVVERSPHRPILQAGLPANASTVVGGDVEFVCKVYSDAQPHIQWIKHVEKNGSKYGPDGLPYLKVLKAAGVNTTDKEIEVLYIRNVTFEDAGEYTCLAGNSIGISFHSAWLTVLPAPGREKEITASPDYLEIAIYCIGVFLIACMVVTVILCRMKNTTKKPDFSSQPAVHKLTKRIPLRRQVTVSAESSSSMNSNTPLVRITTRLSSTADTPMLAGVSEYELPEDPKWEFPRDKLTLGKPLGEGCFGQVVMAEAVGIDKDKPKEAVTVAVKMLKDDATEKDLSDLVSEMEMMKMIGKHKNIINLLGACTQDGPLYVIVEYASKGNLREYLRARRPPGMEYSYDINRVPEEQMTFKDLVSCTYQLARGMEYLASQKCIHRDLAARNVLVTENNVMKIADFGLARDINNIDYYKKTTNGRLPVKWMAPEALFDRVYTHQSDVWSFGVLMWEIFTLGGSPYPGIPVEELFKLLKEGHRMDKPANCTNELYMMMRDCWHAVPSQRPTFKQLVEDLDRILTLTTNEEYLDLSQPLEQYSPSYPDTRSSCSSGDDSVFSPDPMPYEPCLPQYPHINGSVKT
Procedure, shortened: (§2)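 Competition binding of compounds against kinase-tagged T7 phage captured on immobilised biotinylated ligand beads; bead-bound kinase quantified by qPCR of eluates. 11-point 3-fold dilution, 0.9% DMSO final; Kd from Hill fit with slope fixed at −1.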

FGFR4 = biological target: T2, FGFR4 (Homo sapiens, UniProt P22455); test: as above; conditions: read-out: FGFR4 (Kd nM)
T2 construct: made in house; host or cells: E. coli (BL21-derived), T7 phage
T2 sequence (P22455 22-802): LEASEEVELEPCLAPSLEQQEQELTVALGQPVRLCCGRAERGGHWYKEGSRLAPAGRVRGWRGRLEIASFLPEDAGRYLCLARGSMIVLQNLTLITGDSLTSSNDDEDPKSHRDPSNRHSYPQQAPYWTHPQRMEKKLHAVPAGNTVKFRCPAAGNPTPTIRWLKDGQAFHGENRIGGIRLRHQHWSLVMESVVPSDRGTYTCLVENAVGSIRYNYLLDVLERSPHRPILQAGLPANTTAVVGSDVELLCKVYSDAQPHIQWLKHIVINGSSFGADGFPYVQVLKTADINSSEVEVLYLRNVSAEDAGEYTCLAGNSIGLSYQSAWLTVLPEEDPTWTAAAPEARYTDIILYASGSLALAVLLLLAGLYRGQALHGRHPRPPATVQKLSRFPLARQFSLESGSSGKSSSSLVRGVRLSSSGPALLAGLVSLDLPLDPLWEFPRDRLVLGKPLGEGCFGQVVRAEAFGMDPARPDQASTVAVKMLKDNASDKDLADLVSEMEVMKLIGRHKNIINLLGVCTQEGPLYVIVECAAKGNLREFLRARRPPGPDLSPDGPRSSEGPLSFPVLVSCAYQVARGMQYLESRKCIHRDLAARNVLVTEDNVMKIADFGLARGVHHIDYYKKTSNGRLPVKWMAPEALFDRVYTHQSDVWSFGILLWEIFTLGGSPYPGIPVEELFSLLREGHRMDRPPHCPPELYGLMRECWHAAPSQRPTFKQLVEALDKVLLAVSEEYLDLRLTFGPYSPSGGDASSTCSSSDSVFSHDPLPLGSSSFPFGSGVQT
Procedure, shortened: as §2

FGFR3 = biological target: T3, FGFR3 (Homo sapiens, UniProt P22607); test: as above; conditions: read-out: FGFR3 (Kd nM)
T3 construct: made in house; host or cells: E. coli (BL21-derived), T7 phage
T3 sequence (P22607 23-806): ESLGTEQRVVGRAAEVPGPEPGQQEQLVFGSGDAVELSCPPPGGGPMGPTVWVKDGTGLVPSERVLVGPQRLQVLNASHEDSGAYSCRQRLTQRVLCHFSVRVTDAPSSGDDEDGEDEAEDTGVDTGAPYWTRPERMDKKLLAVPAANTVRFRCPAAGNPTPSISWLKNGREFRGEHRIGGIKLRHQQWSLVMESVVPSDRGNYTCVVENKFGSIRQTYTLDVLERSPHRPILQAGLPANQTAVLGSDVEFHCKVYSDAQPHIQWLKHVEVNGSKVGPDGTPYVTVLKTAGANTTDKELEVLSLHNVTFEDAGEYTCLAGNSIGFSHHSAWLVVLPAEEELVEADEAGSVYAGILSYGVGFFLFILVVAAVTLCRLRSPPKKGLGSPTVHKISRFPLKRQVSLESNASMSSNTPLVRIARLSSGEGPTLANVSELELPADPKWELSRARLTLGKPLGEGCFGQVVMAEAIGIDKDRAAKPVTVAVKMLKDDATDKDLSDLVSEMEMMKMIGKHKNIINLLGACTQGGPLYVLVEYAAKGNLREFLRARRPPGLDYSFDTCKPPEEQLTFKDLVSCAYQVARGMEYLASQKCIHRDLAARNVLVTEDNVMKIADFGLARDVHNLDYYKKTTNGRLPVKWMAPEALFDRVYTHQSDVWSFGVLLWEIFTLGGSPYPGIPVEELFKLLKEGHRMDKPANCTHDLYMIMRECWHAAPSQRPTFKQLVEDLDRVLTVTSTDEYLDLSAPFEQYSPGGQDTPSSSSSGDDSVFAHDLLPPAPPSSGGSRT
Procedure, shortened: as §2

FGFR1 = biological target: T4, FGFR1 (Homo sapiens, UniProt P11362); test: as above; conditions: read-out: FGFR1 (Kd nM)
T4 construct: made in house; host or cells: E. coli (BL21-derived), T7 phage
T4 sequence (P11362 22-822): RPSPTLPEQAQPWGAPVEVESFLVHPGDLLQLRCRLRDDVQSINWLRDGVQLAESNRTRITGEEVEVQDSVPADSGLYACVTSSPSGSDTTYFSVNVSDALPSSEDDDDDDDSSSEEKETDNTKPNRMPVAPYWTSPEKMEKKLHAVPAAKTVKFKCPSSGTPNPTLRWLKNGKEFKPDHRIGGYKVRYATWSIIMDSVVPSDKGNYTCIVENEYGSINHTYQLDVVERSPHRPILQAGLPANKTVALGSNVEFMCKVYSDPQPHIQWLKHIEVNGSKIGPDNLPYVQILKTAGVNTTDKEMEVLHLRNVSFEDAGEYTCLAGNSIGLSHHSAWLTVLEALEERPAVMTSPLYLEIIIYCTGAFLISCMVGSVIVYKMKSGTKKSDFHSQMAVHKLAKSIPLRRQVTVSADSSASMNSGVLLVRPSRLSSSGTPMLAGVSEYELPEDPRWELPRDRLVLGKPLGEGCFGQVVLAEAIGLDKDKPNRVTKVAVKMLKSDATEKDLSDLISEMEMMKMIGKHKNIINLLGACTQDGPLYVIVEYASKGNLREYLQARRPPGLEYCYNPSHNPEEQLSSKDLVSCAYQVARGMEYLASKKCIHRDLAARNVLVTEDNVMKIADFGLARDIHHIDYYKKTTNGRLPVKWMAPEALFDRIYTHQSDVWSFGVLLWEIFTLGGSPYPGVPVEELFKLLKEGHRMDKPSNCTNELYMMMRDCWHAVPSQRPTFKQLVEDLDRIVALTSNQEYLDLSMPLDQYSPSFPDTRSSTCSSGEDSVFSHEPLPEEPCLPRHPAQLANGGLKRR
Procedure, shortened: as §2

FGFR3 (V555M) = biological target: T5, FGFR3 (V555M) (Homo sapiens, UniProt P22607, V555M); test: as above; conditions: V555M mutant; read-out: FGFR3 (V555M) (Kd nM)
T5 construct: made in house; host or cells: E. coli (BL21-derived), T7 phage
T5 sequence (P22607 23-806 V555M): as the sequence (P22607 23-806) above, with V533M counted along it
Procedure, shortened: as §2

SMILES	IC50 [1] [nM]	IC50 [2] [nM]	IC50 [3] [nM]	IC50 [4] [nM]	Kd (FGFR2) [nM]	Kd (FGFR4) [nM]	Kd (FGFR3) [nM]	Kd (FGFR1) [nM]	Kd (FGFR3 (V555M)) [nM]
C[C@@H](Oc1ccc2[nH]nc(-c3cnc(N4CC(C)(NC5COC5)C4)c(C#N)c3)c2c1)c1c(Cl)cncc1Cl [Example 4, (R)-5-(5-(1-(3,5-dichloropyridin-4-yl)ethoxy)-1H-indazol-3-yl)-2-(3-methyl-3-(oxetan-3-ylamino)azetidin-1-yl)nicotinonitrile]	0.1 to 50	50 to 200	200 to 1000	200 to 1000	50 to 300	1 to 50	1 to 50	50 to 300	1 to 50
C[C@@H](Oc1ccc2[nH]nc(-c3cnc(N4CC(C)(NC5CS(=O)(=O)C5)C4)c(C#N)c3)c2c1)c1c(Cl)cncc1Cl [Example 7, (R)-5-(5-(1-(3,5-dichloropyridin-4-yl)ethoxy)-1H-indazol-3-yl)-2-(3-((1,1-dioxidothietan-3-yl)amino)-3-methylazetidin-1-yl)nicotinonitrile]	0.1 to 50	0.1 to 50	200 to 1000	50 to 200	50 to 300	1 to 50	1 to 50	50 to 300	1 to 50
COc1cc2[nH]nc(-c3cnc(N4CC(C)(N(C)C)C4)c(C#N)c3)c2cc1O[C@H](C)c1c(Cl)cncc1Cl [Example 10, 5-[5-[(1R)-1-(3,5-dichloro-4-pyridyl)ethoxy]-6-methoxy-1H-indazol-3-yl]-2-[3-(dimethylamino)-3-methyl-azetidin-1-yl]pyridine-3-carbonitrile]	0.1 to 50	0.1 to 50	50 to 200	50 to 200	1 to 50	1 to 50	1 to 50	1 to 50	1 to 50
COc1cc2[nH]nc(-c3cnc(N4CC(C)(N5CCCC5)C4)c(C#N)c3)c2cc1O[C@H](C)c1c(Cl)cncc1Cl [Example 15, 5-[5-[(1R)-1-(3,5-dichloro-4-pyridyl)ethoxy]-6-methoxy-1H-indazol-3-yl]-2-(3-methyl-3-pyrrolidin-1-yl-azetidin-1-yl)pyridine-3-carbonitrile]	0.1 to 50	0.1 to 50	50 to 200	50 to 200	1 to 50	1 to 50	1 to 50	1 to 50	1 to 50
C[C@@H](Oc1ccc2[nH]nc(-c3cnc(N4CC(C)(N5CCCC5)C4)c(C#N)c3)c2c1)c1c(Cl)cncc1Cl [Example 17, (R)-5-(5-(1-(3,5-Dichloropyridin-4-yl)ethoxy)-1H-indazol-3-yl)-2-(3-methyl-3-(pyrrolidin-1-yl)azetidin-1-yl)nicotinonitrile]	0.1 to 50	50 to 200	200 to 1000	200 to 1000	1 to 50	1 to 50	1 to 50	1 to 50	1 to 50
Cc1ncc(Cl)c([C@@H](C)Oc2ccc3[nH]nc(-c4cnc(N5CC(C)(NC6CCC6)C5)c(C#N)c4)c3c2)c1Cl [Example 19, 2-[3-(cyclobutylamino)-3-methyl-azetidin-1-yl]-5-[5-[(1R)-1-(3,5-dichloro-2-methyl-4-pyridyl)ethoxy]-1H-indazol-3-yl]pyridine-3-carbonitrile]	0.1 to 50	200 to 1000	200 to 1000	> 1000	300 to 1000	1 to 50	1 to 50	50 to 300	1 to 50
C[C@@H](Oc1ccc2[nH]nc(-c3cnc(N4CC(C)(N[C@H]5CCOC5)C4)c(C#N)c3)c2c1)c1c(Cl)cncc1Cl [Example 20, 5-(5-((R)-1-(3,5-dichloropyridin-4-yl)ethoxy)-1H-indazol-3-yl)-2-(3-methyl-3-(((S)-tetrahydrofuran-3-yl)amino)azetidin-1-yl)nicotinonitrile]	0.1 to 50	50 to 200	200 to 1000	50 to 200	1 to 50	1 to 50	1 to 50	1 to 50	1 to 50
C[C@@H](Oc1ccc2[nH]nc(-c3cnc(N4CC(C)(NCCC(F)F)C4)c(C#N)c3)c2c1)c1c(Cl)cncc1Cl [Example 21, (R)-5-(5-(1-(3,5-dichloropyridin-4-yl)ethoxy)-1H-indazol-3-yl)-2-(3-((3,3-difluoropropyl)amino)-3-methylazetidin-1-yl)nicotinonitrile]	50 to 200	50 to 200	200 to 1000	200 to 1000	50 to 300	1 to 50	1 to 50	50 to 300	1 to 50
C[C@@H](Oc1ccc2[nH]nc(-c3cnc(N4CC(C)(NCC(F)F)C4)c(C#N)c3)c2c1)c1c(Cl)cncc1Cl [Example 22, (R)-5-(5-(1-(3,5-dichloropyridin-4-yl)ethoxy)-1H-indazol-3-yl)-2-(3-((2,2-difluoroethyl)amino)-3-methylazetidin-1-yl)nicotinonitrile]	0.1 to 50	50 to 200	200 to 1000	200 to 1000	50 to 300	1 to 50	1 to 50	50 to 300	1 to 50
C[C@@H](Oc1ccc2[nH]nc(-c3cnc(N4CC(C)(CN(C)S(C)(=O)=O)C4)c(C#N)c3)c2c1)c1c(Cl)cncc1Cl [Example 23, (R)-N-((1-(3-cyano-5-(5-(1-(3,5-dichloropyridin-4-yl)ethoxy)-1H-indazol-3-yl)pyridin-2-yl)-3-methylazetidin-3-yl)methyl)-N-methylmethanesulfona-mide]	0.1 to 50	50 to 200	200 to 1000	200 to 1000	1 to 50	1 to 50	1 to 50	1 to 50	1 to 50
COc1cc2[nH]nc(-c3cnc(N4CC(C)(N[C@H]5CCOC5)C4)c(C#N)c3)c2cc1O[C@H](C)c1c(Cl)cncc1Cl [Example 24, 5-(5-((R)-1-(3,5-dichloropyridin-4-yl)ethoxy)-6-methoxy-1H-indazol-3-yl)-2-(3-methyl-3-(((S)-tetrahydrofuran-3-yl)amino)azetidin-1-yl)nicotinonitrile]	0.1 to 50	0.1 to 50	50 to 200	50 to 200	1 to 50	1 to 50	1 to 50	1 to 50	1 to 50
COc1cc2[nH]nc(-c3cnc(N4CC(C)(N[C@@H]5CCOC5)C4)c(C#N)c3)c2cc1O[C@H](C)c1c(Cl)cncc1Cl [Example 25, 5-(5-((R)-1-(3,5-dichloropyridin-4-yl)ethoxy)-6-methoxy-1H-indazol-3-yl)-2-(3-methyl-3-(((R)-tetrahydrofuran-3-yl)amino)azetidin-1-yl)nicotinonitrile]	0.1 to 50	0.1 to 50	50 to 200	50 to 200	1 to 50	1 to 50	1 to 50	1 to 50	1 to 50
COc1cc2[nH]nc(-c3cnc(N4CC(C)(N5CCC5)C4)c(C#N)c3)c2cc1O[C@H](C)c1c(Cl)cncc1Cl [Example 26, (R)-5-(5-(1-(3,5-dichloropyridin-4-yl)ethoxy)-6-methoxy-1H-indazol-3-yl)-2-(3′-methyl-[1,3′-biazetidin]-1′-yl)nicotinonitrile]	0.1 to 50	0.1 to 50	0.1 to 50	50 to 200	1 to 50	1 to 50	1 to 50	1 to 50	1 to 50
C[C@@H](Oc1ccc2[nH]nc(-c3cnc(N4CC(C)(NCC5CC5)C4)c(C#N)c3)c2c1)c1c(Cl)cncc1Cl [Example 27, 2-[3-(Cyclopropylmethylamino)-3-methyl-azetidin-1-yl]-5-[5-[(1R)-1-(3,5-dichloro-4-pyridyl)ethoxy]-1H-indazol-3-yl]pyridine-3-carbonitrile]	50 to 200	50 to 200	200 to 1000	200 to 1000	50 to 300	1 to 50	1 to 50	1 to 50	1 to 50
CCC1(N)CN(c2ncc(-c3n[nH]c4cc(OC)c(O[C@H](C)c5c(Cl)cncc5Cl)cc34)cc2C#N)C1 [Example 365, 2-(3-amino-3-ethyl-azetidin-1-yl)-5-[5-[(1R)-1-(3,5-dichloro-4-pyridyl)ethoxy]-6-methoxy-1H-indazol-3-yl]pyridine-3-carbonitrile]	0.1 to 50	0.1 to 50	0.1 to 50	50 to 200	1 to 50	1 to 50	1 to 50	1 to 50	
